Test results reported in US20240092829A1, “PEPTIDE HAVING PROTECTIVE ACTIVITY AGAINST CELL DAMAGE CAUSED BY PARTICULATE MATTER, AND USES FOR SAME” (CAREGEN CO., LTD., priority 2020, published 2024).
Peptide text beside a SMILES is read from it.

Legend:
cytochrome P450 [1] = test: Cytochrome P450 activity in HaCaT cells (P450-Glo Assay kit); type: cell-based; conditions: HaCaT human keratinocytes; peptide pretreatment 1 hour at 20, 100, 200 μM; then 50 μg/cm^2 urban particulate matter 24 hours; FIG. 3
Excerpt: When polyaromatic hydrocarbons (PAHs) present in particulate matter penetrate into cells and bind to AHR, it promotes nuclear translocation of AHR. It is known that the AHR translocated into the nucleus forms a complex AHR/ARNT with an AHR nuclear translocator (ARNT), and this complex act as a transcription factor to promote the expression of cytochrome P450 (CYPs). In order to confirm the effect of the synthesized peptide in inhibiting cell damage caused by particulate matter, an experiment was performed for confirming whether the peptide inhibits the activity of cytochrome P450 after the cells were treated with particulate matter.
(§1) First, HaCaT cells, which are human keratinocytes, were seeded into a 96-well plate at a density of 1×10^4 cells/well. After overnight incubation, the media were replaced with serum-free media. The keratinocytes, HaCaT were pretreated with the synthesized peptides for 1 hour at each concentration (20 μM, 100 μM, and 200 μM). Then, the cells were treated with 50 μg/cm^2 of urban particulate matter (Sigma, NIST1648A) for 24 hours. After the keratinocytes were collected, the activity of cytochrome P450 was measured using P450-Glo™ Assay kit (Promega).

cytochrome P450 [2] = test: Cytochrome P450 activity in A549 cells (P450-Glo Assay kit); type: cell-based; conditions: A549 human alveolar epithelial cells; peptide pretreatment 1 hour at 20, 100, 200 μM; then 50 μg/cm^2 urban particulate matter 24 hours; FIG. 4
Method: In addition, in order to confirm whether the peptide of the present invention can suppress respiratory damage caused by particulate matter, an experiment for measuring the activity of cytochrome P450 was also performed on A549 cells, which are human alveolar epithelial cells.
as §1, with “human alveolar epithelial” for “HaCaT”, “A549 cells” for “which are human keratinocytes,”, “1.2×10^4” for “1×10^4”, “alveolar epithelial cells, A549 cells” for “keratinocytes, HaCaT”, “treated cells” for “keratinocytes”

activity of cytochrome P450 increased by the treatment of particulate matter (cytochrome P450 [1]): reduced
activity of cytochrome P450 increased by the treatment of particulate matter (cytochrome P450 [2]): reduced
SMILES: CSCC[C@H](NC(=O)[C@H](Cc1ccc(O)cc1)NC(=O)[C@@H](N)Cc1c[nH]c2ccccc12)C(=O)O [SEQ ID NO: 1, Trp Tyr Met] (H-Trp-Tyr-Met-OH; N-terminus and C-terminus assumed)
